Common to all, as to assay type: cell-based, Staphylococcus aureus
The test system of experiment [1] is S. aureus ATCC 25923. Kind of experiment: Minimum Inhibitory Concentration (MIC) on planktonic bacteria, CLSI M07-A9 modified for 96 well plates.
Experiment [2] relates to S. aureus ATCC 25923. Description: Biofilm prevention (inhibition), 96-well microplate assay.
Experiment [3] deals with S. aureus ATCC 25923. Kind of experiment: Biofilm removal, MBEC Assay (ASTM E2799-12).

Several values for one entry are separate records, joined by “and”; a condition that tells them apart may be missing. Equal values may be shown once.

From patent publication US20230248000A1, “ANTIMICROBIAL COMPOUNDS AND METHODS OF USE” (Aequor, Inc., priority 2016, published 2023) come the findings set out here.

In the case of `CCCCOP(=O)(O)OCCCC` [Dibutyl phosphate], the MIC with S. aureus ATCC 25923 [1] is 0.24% and 0.01%. Besides, the “Biofilm Prevention” value with S. aureus ATCC 25923 [2] worked out at 99.99%. In the experiment with S. aureus ATCC 25923 [3], the “Biofilm Removal” value was determined as 99.99% and the “MBEC Qualitative” value came out at 0.24%.

For the compound `CCCCOP(=O)(OC)OCCCC` [Dibutyl methyl phosphate], the MIC with S. aureus ATCC 25923 [1] is on record as 0.24%. Moreover, in the experiment on S. aureus ATCC 25923 [2], the “Biofilm Prevention” value turned out to be 99.99%. Besides, in the experiment on S. aureus ATCC 25923 [3], the “Biofilm Removal” value is 99.99% and the “MBEC Qualitative” value is on record as greater than 2.3%.
